In patent US20250257055A1, “TERTIARY AMIDE DERIVATIVES SUBSTITUTED WITH 4-MEMBERED RING STRUCTURE” (Sumitomo Pharma Co., Ltd., priority 2024, published 2025):
Like-named read-outs stand apart in the source and are kept apart here.

Columns and labels:
[1] = biological target: recombinant p300 (Homo sapiens (Human), UniProt Q09472); test: HAT activity inhibition experiment (SensoLyte HAT(p300) Assay Kit); type: biochemical; conditions: recombinant p300, histone H3 peptide, acetyl CoA
Procedure: The HAT activity inhibitory ability of HAT inhibitors was evaluated using SensoLyte HAT(p300) Assay Kit (ANASPEC, AS-72172). Specifically, 7.5 μL of the compound of Examples […] diluted with assay buffer was added to 7.5 μL of recombinant p300 solution diluted 10 times with assay buffer, and the mixture was incubated at room temperature for 10 minutes. 7.5 μL of acetyl CoA solution diluted 10 times with assay buffer and 15 μL of histone H3 peptide diluted 10 times with assay buffer were added thereto, and the mixture was incubated at 37° C. for 30 minutes. 37.5 μL of Stop Solution was added to stop the reaction. 75 μL of p300 Developer solution diluted 50 times with assay buffer was added, and the mixture was incubated at room temperature for 30 minutes under light-shielded conditions. The fluorescence at 513 nm when irradiated with 389 nm excitation light was measured using a multiplate reader.

[2] = Pharmacokinetic study in mice; type: in vivo; conditions: for AUC / clearance / half-life / Vd / Cmax: female, BALB/c (BALB/cAnN CrlCrlj), mouse, plasma; for Vd: read-out: Vdss
Procedure: The test compound was administered to 7-week-old female BALB/c (BALB/cAnN CrlCrlj) mice intravenously (dosage: 1 mg/kg) in a 50% PEG solution (0.01 mol/L HCl) or orally (dosage: 10 mg/kg) in a 0.5% methylcellulose aqueous solution, and blood was collected at the following times:
Intravenous administration: 5 min, 15 min, 30 min, 1 hr, 2 hr, 4 hr, 6 hr, and 24 hr after administration
Oral administration: 15 min, 30 min, 1 hr, 2 hr, 4 hr, 6 hr, and 24 hr after administration
The collected blood was centrifuged at 3000 rpm×10 min using a refrigerated centrifuge set at 4° C., and the obtained plasma was measured by LC-MS. A calibration curve was prepared from the value (peak ratio) obtained by dividing the peak area of the test substance by the peak area of the internal standard substance in MS and the concentration of the plasma calibration curve sample. The concentration in the sample was calculated from the peak ratio and the calibration curve of each sample.

[3] = test system: G-401 cells; test: Cell proliferation inhibition experiment using G-401 cells; type: cell-based; conditions: Homo sapiens, 72 h, cultured for 3 days, CellTiter-Glo
Procedure: G-401 cells (derived from malignant rhabdoid tumor) were obtained from the American Type Culture Collection (ATCC). G-401 cells were cultured in McCoy's 5A medium containing 10% fetal bovine serum and 1% penicillin/streptomycin under conditions of 37° C. and 5% CO2.
500 cells per well were seeded in a 384-well plate. One day after seeding, Examples 1 to 35 were added so that the final concentration of DMSO was 0.1%, and the cells were cultured for 3 days. After the culture was completed, the cell viability was measured using CellTiter-Glo Luminescent Cell Viability Assay (Promega, G7570).

[4] = Membrane permeability test (PAMPA); type: in vitro ADME
Procedure: The membrane permeability of the test compound was tested by parallel artificial membrane permeability assay (PAMPA) as follows. 200 μL of System solution (pION Inc.) containing the test compound and 4 μL of GIT Lipid-0 (pION Inc.) were added to the donor plate. 200 μL of Acceptor Sink Buffer (pION Inc.) was added to the acceptor plate. Both plates were overlapped and incubated at 37° C. for 4 hours, after which the UV of the solutions on the acceptor side and donor side was measured using a UV plate reader (190-500 nm). Compounds with poor UV absorption were measured using LC-MS. The permeability coefficient Pe (10^−6 cm/sec) of the drug was calculated using the following equation.

[5] = pH 5.0, 37° C., read-out: pH 5.0 Pe
[6] = pH 7.4, 37° C., read-out: pH 7.4 Pe

recombinant p300, sequence (Q09472 whole entry): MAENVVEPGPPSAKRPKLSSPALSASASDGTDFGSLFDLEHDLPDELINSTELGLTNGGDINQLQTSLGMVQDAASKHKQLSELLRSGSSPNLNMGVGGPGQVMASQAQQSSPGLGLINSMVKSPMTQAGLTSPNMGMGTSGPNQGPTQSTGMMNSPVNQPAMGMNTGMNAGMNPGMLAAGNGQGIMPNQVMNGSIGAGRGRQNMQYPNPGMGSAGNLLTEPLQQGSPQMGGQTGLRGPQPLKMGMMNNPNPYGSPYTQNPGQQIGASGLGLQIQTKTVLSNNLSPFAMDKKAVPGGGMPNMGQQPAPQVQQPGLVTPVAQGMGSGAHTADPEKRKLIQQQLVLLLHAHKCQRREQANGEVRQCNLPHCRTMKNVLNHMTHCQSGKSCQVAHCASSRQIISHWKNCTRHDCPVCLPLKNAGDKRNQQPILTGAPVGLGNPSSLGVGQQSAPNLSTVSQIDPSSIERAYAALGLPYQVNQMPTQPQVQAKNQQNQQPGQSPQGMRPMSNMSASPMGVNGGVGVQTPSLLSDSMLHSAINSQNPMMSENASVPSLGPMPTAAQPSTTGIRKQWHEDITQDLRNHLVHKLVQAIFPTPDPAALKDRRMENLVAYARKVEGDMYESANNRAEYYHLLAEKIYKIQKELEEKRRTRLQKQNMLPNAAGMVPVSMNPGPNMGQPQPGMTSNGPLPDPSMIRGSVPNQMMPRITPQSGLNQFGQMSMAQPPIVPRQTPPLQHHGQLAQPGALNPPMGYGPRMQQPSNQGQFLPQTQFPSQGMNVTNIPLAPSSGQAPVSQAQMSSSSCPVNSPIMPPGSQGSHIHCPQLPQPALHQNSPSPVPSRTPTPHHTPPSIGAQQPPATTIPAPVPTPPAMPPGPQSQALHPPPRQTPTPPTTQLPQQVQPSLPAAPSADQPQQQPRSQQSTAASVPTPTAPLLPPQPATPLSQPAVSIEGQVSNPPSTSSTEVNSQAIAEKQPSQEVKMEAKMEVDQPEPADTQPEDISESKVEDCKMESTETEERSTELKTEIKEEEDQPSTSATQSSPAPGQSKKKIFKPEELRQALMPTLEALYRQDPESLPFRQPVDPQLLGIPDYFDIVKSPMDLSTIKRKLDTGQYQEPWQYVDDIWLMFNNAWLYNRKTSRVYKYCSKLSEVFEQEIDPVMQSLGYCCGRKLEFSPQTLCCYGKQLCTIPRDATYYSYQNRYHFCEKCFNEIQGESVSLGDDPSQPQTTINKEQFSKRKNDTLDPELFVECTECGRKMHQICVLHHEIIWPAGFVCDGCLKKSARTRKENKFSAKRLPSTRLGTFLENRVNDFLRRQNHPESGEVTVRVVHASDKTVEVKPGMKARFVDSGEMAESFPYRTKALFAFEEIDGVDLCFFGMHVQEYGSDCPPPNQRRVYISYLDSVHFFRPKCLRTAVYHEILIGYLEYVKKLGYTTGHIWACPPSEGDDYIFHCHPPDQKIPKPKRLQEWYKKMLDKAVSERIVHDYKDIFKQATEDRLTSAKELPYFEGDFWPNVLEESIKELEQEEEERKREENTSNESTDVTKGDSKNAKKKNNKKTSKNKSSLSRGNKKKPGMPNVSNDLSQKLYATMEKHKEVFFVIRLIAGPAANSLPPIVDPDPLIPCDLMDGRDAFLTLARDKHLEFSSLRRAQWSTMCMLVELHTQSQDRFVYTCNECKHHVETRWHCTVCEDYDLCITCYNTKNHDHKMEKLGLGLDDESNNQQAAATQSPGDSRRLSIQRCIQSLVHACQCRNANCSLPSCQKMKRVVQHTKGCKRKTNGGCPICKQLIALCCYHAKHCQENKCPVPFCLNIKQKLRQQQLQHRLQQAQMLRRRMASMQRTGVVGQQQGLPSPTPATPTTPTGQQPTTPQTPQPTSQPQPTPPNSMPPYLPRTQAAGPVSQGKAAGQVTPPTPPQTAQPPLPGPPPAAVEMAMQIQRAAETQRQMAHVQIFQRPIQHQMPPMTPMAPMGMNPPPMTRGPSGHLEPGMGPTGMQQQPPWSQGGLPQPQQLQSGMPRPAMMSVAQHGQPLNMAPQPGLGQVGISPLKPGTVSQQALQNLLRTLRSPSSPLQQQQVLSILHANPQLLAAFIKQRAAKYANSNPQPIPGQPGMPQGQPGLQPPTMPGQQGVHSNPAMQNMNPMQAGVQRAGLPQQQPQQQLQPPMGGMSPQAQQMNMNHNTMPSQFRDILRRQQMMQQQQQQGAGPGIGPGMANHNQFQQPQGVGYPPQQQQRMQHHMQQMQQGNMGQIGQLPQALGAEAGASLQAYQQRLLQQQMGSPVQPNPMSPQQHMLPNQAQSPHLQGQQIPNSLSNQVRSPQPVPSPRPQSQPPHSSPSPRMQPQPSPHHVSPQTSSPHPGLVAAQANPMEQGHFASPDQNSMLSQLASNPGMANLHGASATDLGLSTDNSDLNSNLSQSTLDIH

IC50 [1] [nM] | AUC ([2]; intravenous, 1 mg/kg) [ng·h/mL] | clearance ([2]; intravenous, 1 mg/kg) [mL/min/kg] | half-life ([2]; intravenous, 1 mg/kg) [h] | Vd ([2]; intravenous, 1 mg/kg) [L/kg] | AUC ([2]; oral, 10 mg/kg) [ng·h/mL] | Cmax ([2]; oral, 10 mg/kg) [ng/mL] | BA ([2]; oral, 10 mg/kg) [%] | Papp at 4 h [4, 5] [×10⁻⁶ cm/s] | Papp at 4 h [4, 6] [×10⁻⁶ cm/s] | SMILES | IC50 [3] [nM]
0.5 | 2100 | 6.8 | 2.3 | 1.2 | 28700 | 8300 | 136.3 | 25.7 | 31.2 | O=C1N[C@]2(C[C@@H](F)c3cc(-c4cnn(C5CN(C6COC6)C5)c4)ccc32)C(=O)N1CC(=O)N(Cc1ccc(F)cc1)C1(C(F)(F)F)CC(F)(F)C1 [Example 4, N-[3,3-difluoro-1-(trifluoromethyl)cyclobutyl]-2-[(1′S,3′R)-3′-fluoro-5′-{1-[1-(oxetan-3-yl)azetidin-3-yl]-1H-pyrazol-4-yl}-2,5-dioxo-2′,3′-dihydrospiro[imidazolidine-4,1′-inden]-1-yl]-N-[(4-fluorophenyl)methyl]acetamide] | 43
6.3 | 465 | 35.7 | 0.97 | 1.6 | 1400 | 1290 | 30.0 | 24 | 28.9 | CN1CC(N(Cc2ccc(F)cc2)C(=O)CN2C(=O)N[C@]3(CCc4cc(-c5cnn(C)c5)ccc43)C2=O)(C(F)(F)F)C1 [Example 12, N-[(4-fluorophenyl)methyl]-2-[(1′S)-5′-(1-methyl-1H-pyrazol-4-yl)-2,5-dioxo-2′,3′-dihydrospiro[imidazolidine-4,1′-inden]-1-yl]-N-[1-methyl-3-(trifluoromethyl)azetidin-3-yl]acetamide] | 82
6.1 | 875 | 17.6 | 1.75 | 2.1 | 7300 | 3500 | 83.4 | 25.4 | 28.4 | O=C1N[C@]2(CCc3cc(-c4cnn(C5CN(C6COC6)C5)c4)ccc32)C(=O)N1CC(=O)N(Cc1ccc(F)cc1)C1(C(F)(F)F)CC(F)(F)C1 [Example 5, N-[3,3-difluoro-1-(trifluoromethyl)cyclobutyl]-N-[(4-fluorophenyl)methyl]-2-[(1'S)-5′-{1-[1-(oxetan-3-yl)azetidin-3-yl]-1H-pyrazol-4-yl}-2,5-dioxo-2′,3′-dihydrospiro[imidazolidine-4,1′-inden]-1-yl]acetamide] | 88
5.2 | – | – | – | – | – | – | – | 31.2 | 33.7 | CN1CC(N(Cc2ccc(C(F)(F)F)cc2)C(=O)CN2C(=O)N[C@]3(C[C@@H](F)c4cc(-c5cnn(C)c5)ccc43)C2=O)(C(F)(F)F)C1 [Example 35, 2-[(1′S,3′R)-3′-fluoro-5′-(1-methyl-1H-pyrazol-4-yl)-2,5-dioxo-2′,3′-dihydrospiro[imidazolidine-4,1′-inden]-1-yl]-N-[1-methyl-3-(trifluoromethyl)azetidin-3-yl]-N-{[4-(trifluoromethyl)phenyl]methyl}acetamide] | 72
11 | – | – | – | – | – | – | – | 21.2 | 23 | CN(C)C1(Cn2cc(-c3ccc4c(c3)[C@H](F)C[C@]43NC(=O)N(CC(=O)N(Cc4ccc(F)cc4)C4(C(F)(F)F)COC4)C3=O)cn2)COC1 [Example 22, 2-[(1′S,3′R)-5′-(1-{[3-(dimethylamino)oxetan-3-yl]methyl}-1H-pyrazol-4-yl)-3′-fluoro-2,5-dioxo-2′,3′-dihydrospiro[imidazolidine-4,1′-inden]-1-yl]-N-[(4-fluorophenyl)methyl]-N-[3-(trifluoromethyl)oxetan-3-yl]acetamide] | 68
